Legend:
Mut MEFs [1] = experiment: mtDNA quantification (qPCR of mitochondrial 12S rRNA and nuclear 18S rRNA genes), MEFs; type: cell-based, mouse
Experimental: DNA extracted from WT and Mut MEFs that were treated or not for 6 hours with 0.1 μM, 1 μM or 10 μM of p8G5 (blue), Pre084 (known SIG-1R agonist, purple), pridopidine (known SIG-1R agonists, green) or NE-100 (known SIG-1R antagonist, yellow) was subjected to qPCR analysis of mitochondrial 12S rRNA and nuclear 18S rRNA genes.

Mut MEFs [2] = experiment: TMRE staining, flow cytometry; type: cell-based, mouse
Experimental: Mut MEFs were treated or untreated with the indicated concentrations of the indicated Sig-1R binders for 6 hours, stained by TMRE for 30 minutes and analyzed by flow cytometry. Shown are flow cytometry histograms and bar graphs representing % mean TMRE fluorescence intensity relative to non-treated WT cells of a representative experiment.
MEFs were seeded at a density of 4×10^4 cells per well in a 24-wells plate. 24 hours post-plating the cells were incubated with the tested compounds for additional 6 hours followed by staining with 200 nM Tetra-Methyl-Rhodamine-Ethyl esterperchlorate (TMRE) (Abcam) for 30 minutes at 37° C. Cells were removed by trypsinyzation, washed and resuspended in PBS. 5-10×10^3 cells were analyzed by Stratedigm S1000EXi cell sorter and FlowJo software (FLOWJO, LLC, Ashland, Oreg., USA).

Mut MEFs [3] = experiment: Oxygen consumption (Seahorse XF Cell Mito Stress Test), MEFs; type: cell-based, mouse; details: for maximal respiration rate per mitochondrial content: 1 μM, 6 hours (FIG. 8C); for basal and ATP-linked respiration rate per mitochondrial DNA content: 6 hours (FIGS. 8A-B); for basal respiration and ATP-linked respiration per cell (OCR): 6 hours, normalized to biomass (FIGS. 7A-B)
Experimental: Mut MEFs were treated or not for 6 hours with the indicated concentrations of the indicated Sig-1R binders. Oxygen consumption was measured in a XF96 Extracellular Flux Analyzer using the Seahorse XF Cell Mito Stress Test Kit. The Basal respiration (FIG. 7A) and ATP-linked respiration (FIG. 7B) data were normalized to biomass as determined by Crystal Violet staining.
Mut MEFs were treated or not for 6 hours with the indicated concentrations of the indicated Sig-1R binders. Oxygen consumption was measured in a XF96 Extracellular Flux Analyzer using the Seahorse XF Cell Mito Stress Test Kit. The Basal respiration (FIG. 8A), ATP-linked respiration (FIG. 8B) and maximal respiration (FIG. 8C) data was normalized to mtDNA content as detailed in FIG. 2.
(§1) The data were normalized to cell number, obtained by Crystal Violet staining, or to mtDNA content.

Mut primary astrocytes [4] = experiment: Oxygen consumption (OCR), primary astrocytes; type: cell-based, mouse; details: 1 or 10 μm, 6 hours, normalized to cell number (FIGS. 17B-C)
Experimental: (§2) Shown is average relative quantity (RQ) of 2-6 independent experiments normalized to their untreated controls ±SEM. […] Values of ATP-linked respiration (FIG. 17B) and maximal respiration (FIG. 17C) were analyzed and normalized to cell number.
as §1

Mut primary astrocytes [5] = experiment: mtDNA quantification, primary astrocytes; type: cell-based, mouse; details: 1 or 10 μm, 6 hours (FIG. 17A)
Experimental: as §2

Mut astrocytes [6] = experiment: Survival under Tunicamycin-induced ER stress, Crystal Violet, astrocytes; type: cell-based, mouse; details: 30 μM, 50 ng/ml Tunicamycin last 22 hours (FIG. 19)
Experimental: WT and Mut astrocytes were treated or not for 24 hours with 20, 30 or 50 μM of the indicated Sig-1R binders in the presence of 50 ng/ml Tunicamycin (Tun) during the last 22 hours. Following, the cells were washed, fixated and stained with Crystal Violet (CV) followed by measurement of absorbance at 570 nm. Shown is % of CV staining relative to cells not treated with tunicamycin nor Sig-1R binder ±SEM of 3 independent experiments, *p<0.05.
(§3) Cells were seeded on 96-wells plate at a density of 5000 cells per well. Astrocytes were seeded following coating with 0.001% PDL.

Mut MEFs [7] = experiment: Cell survival assay, Crystal violet staining, Mut MEFs; type: cell-based, mouse; details: for Survival (%) ± SEM Mut MEFs: 24 hours, untreated cells set to 100%
Experimental: as §3

Mut MEFs [8] = experiment: JC1 staining of intact and damaged mitochondria (mitochondrial membrane potential); type: cell-based, mouse
Experimental: Mut MEFs were treated or not for 6 hours with the indicated concentrations of p8G5 (blue), pre084 (purple), or NE-100 (yellow), washed and stained with Hoechst and JC1 for 30 minutes followed by image acquisition using In-Cell-Analyzer-2000. Shown is the % of red/green JC1 integrated intensity per cell relative to that in untreated WT cells of 2-4 independent experiments.
Following, the cells were washed, stained with Hoechst and JC-1 fluorescent dyes for 30 minutes, and subjected to image acquisition using In-Cell-Analyzer-2000. Shown is cellular content of damaged mitochondria (JC1 green channel, red bars), intact mitochondria (JC1 red channel, green bars) and damaged to intact mitochondria ratio (blue bars). Values of control (vehicle treated) cells was set to 100%.
Mut MEFs were treated with the indicated compounds at 10 μM for 24 hours followed by staining with fluorogenic dyes and image-based single-cell analysis. Shown is average effect on ROS level from at least 3-independent experiments ±SEM. […] Mut MEFs were incubated or not for 24 hours with 10 μM of the indicated compound, washed and stained with Crystal Violet. […] Mut MEFs were incubated or not for 24 hours with 10 μM of the indicated compound, washed and stained with JC1 and Hoechst followed by image-based single-cell analysis. Values of untreated cells were set as 100%. Shown is average of at least 3 independent experiments for each parameter compared to its matching control ±SEM. * p<0.05. Putative targets are indicated.
Mut MEFs were incubated or not for 24 hours with 10 μM of the indicated compounds, washed and stained with Hoechst and JC1 followed by image-based single-cell analysis. […] Mut MEFs were incubated or not with the indicated concentrations of the indicated compounds for 2 hours followed by addition of 50 ng/ml Tunicamycin (Tun) for additional 22 hours, stained with Crystal Violet followed by measurement of absorbance at 570 nm.
MEFs were seeded on 1% gelatin-coated 96-wells plate at a density of 5000 cells per well. 24 hours post-plating the cells were incubated with the tested compounds for additional 24 hours. Several DMSO-treated cells (control) were included in each plate at different locations. Following, the cells were stained by addition of fluorogenic dyes for further 30 minutes incubation at 37° C. […] CellROX was used together with Hoechst and CFSE; JC1 was used together with Hoechst. Cells were washed with Hank's balanced salt solution (HBSS) which was used for images acquisition using IN Cell Analyzer 2000 (GE Healthcare, Pitsburgh, Pa., USA). IN Cell Developer Toolbox 1.9.1 software (GE Healthcare) was used for analysis which included cells segmentation using Hoechst and/or CFSE signals. For analysis of JC1 staining, integrated intensity of green and red emissions were used for detection of damaged and intact mitochondria, respectively.

primary OPC = experiment: OPC differentiation assay (IncuCyte); type: cell-based, mouse; details: 1 μM, 60 hours in differentiation medium (FIG. 13)
Experimental: Images were taken every 10 hours followed by analysis using IncuCyte ZOOM software (2016B).
5,000 cells OPCs per well were seeded in a 96 wells plate and maintained overnight in proliferation media (Emery et al. 2013). […] OPC differentiation was monitored by continuous imaging. Images taken at ten hours intervals were analyzed by IncuCyte NeuroTrack software for the following parameters: Neurite length, Neurite branch points, Cell body clusters and Cell body cluster area. Statistics—For all comparisons, Student's t-test was performed using ≥3 independent biological repeats for each group (methodological selection of sample size was not applied).

WT astrocytes = experiment: Cell survival assay, Crystal violet staining, WT astrocytes; type: cell-based, mouse; details: 24 hours, untreated cells set to 100%
Experimental: as §3

Mut astrocytes [9] = experiment: Cell survival assay, Crystal violet staining, Mut astrocytes; type: cell-based, mouse; details: 24 hours, untreated cells set to 100%
Experimental: as §3

Mut MEFs [10] = experiment: Survival under Tunicamycin-induced ER stress, Crystal Violet, MEFs; details: 30 μM, 24 hours, Tunicamycin during the last 22 hours (FIGS. 9 and 18)
Experimental: Mut MEFs were treated or not for 24 hours with the indicated concentrations of the indicated Sig-1R binders in the presence of 0.1 μg/ml Tunicamycin (Tun) during the last 22 hours. Following, the cells were washed, fixated and stained with Crystal Violet (CV) followed by measurement of absorbance at 570 nm. Shown is average % of CV staining relative to cells not treated with tunicamycin nor Sig-1R binder ±SEM of 3 independent experiments. *p<0.03.
Following, the cells were washed, fixated and stained with Crystal Violet and absorbance at 570 nm was measured. Data is presented relative to cells of the corresponding genotype not treated with p8G5 nor Tunicamycin. Shown is average % of CV staining ±SEM of 3 independent experiments.
Mut MEFs were treated or not for 24 hours with 10, 20 or 30 μM of the indicated Sig-1R binders in the presence of 50 ng/ml Tunicamycin (Tun) during the last 22 hours. Following, the cells were washed, fixated and stained with Crystal Violet (CV) followed by measurement of absorbance at 570 nm. Shown is % of CV staining relative to cells not treated with tunicamycin nor Sig-1R binder ±SEM of 3 independent experiments, *p<0.05.
Mut MEFs were incubated or not with the indicated concentrations of the indicated compounds for 2 hours followed by addition of 50 ng/ml Tunicamycin (Tun) for additional 22 hours, stained with Crystal Violet followed by measurement of absorbance at 570 nm. Shown is average normalized to Tun-treated cells without any compound ±SEM of 3 independent experiments. * not significant; ** p<0.02; *** all values p<0.04.

[11] = Mutant MEFs, 1 μM, 24 hours (FIG. 12)

CCCN1CCC(c2cccc(S(C)(=O)=O)c2)CC1 [pridopidine, 4-(3-(Methylsulfonyl)phenyl)-1-propylpiperidine]
mitochondrial content in Mut MEFs (Mut MEFs [1]; 1 μM-10 μM, 6 hours incubation (FIG. 2)): lowered the abnormal high mitochondrial content
TMRE staining (mitochondrial membrane potential) (Mut MEFs [2]; 10 μM, 6 hours (FIGS. 5A-B)): increased TMRE staining to a level above that of untreated WT cells
maximal respiration rate per mitochondrial content (Mut MEFs [3]): increased the maximal respiration capacity per mitochondria to the level of untreated WT cells
basal and ATP-linked respiration rate per mitochondrial DNA content (Mut MEFs [3]): beneficial effect
ATP-linked and maximal respiration in mutant astrocytes (Mut primary astrocytes [4]): increased both ATP-linked and maximal respiration
mitochondrial content per cell in astrocytes (Mut primary astrocytes [5]): no effect on mitochondrial content per cell
survival rate of Mut astrocytes under ER-stress conditions (Mut astrocytes [6]): increased the survival rate

CC1=C2C[C@H]3[C@@H](CC=C4C[C@@H](O)CC[C@@]43C)[C@@H]2CC[C@]12O[C@@H]1C[C@H](C)CN[C@H]1[C@H]2C [Cyclopamine, reference compound]
Survival (%) ± SEM Mut MEFs (Mut MEFs [7]; 0.1 μM): 92 ± 2.5%
Survival (%) ± SEM Mut MEFs (Mut MEFs [7]; 1 μM): 95 ± 4.1%
Survival (%) ± SEM Mut MEFs (Mut MEFs [7]; 10 μM): 79 ± 1.4%
content of damaged mitochondria (JC1 green channel) (Mut MEFs [8]; [11]): decreased content of damaged mitochondria
content of intact mitochondria (JC1 red channel) (Mut MEFs [8]; [11]): increased content of intact mitochondria
neurite length, neurite branch points, cell body clusters and cell body cluster area (primary OPC): positive effect

O=C(OCCN1CCOCC1)C1(c2ccccc2)CCCCC1 [pre084, 2-morpholin-4-ylethyl 1-phenylcyclohexane-1-carboxylate]
Survival (%) ± SEM Mut MEFs (Mut MEFs [7]; 0.1 μM): 100 ± 2.1%
Survival (%) ± SEM Mut MEFs (Mut MEFs [7]; 1 μM): 101 ± 3.5%
Survival (%) ± SEM Mut MEFs (Mut MEFs [7]; 10 μM): 99 ± 1.5%
Survival (%) ± SEM Mut MEFs (Mut MEFs [7]; 20 μM): 97 ± 2.1%
Survival (%) ± SEM Mut MEFs (Mut MEFs [7]; 30 μM): 105 ± 1.9%
Survival (%) ± SEM Mut MEFs (Mut MEFs [7]; 50 μM): 80 ± 2.8%
Survival (%) ± SEM Mut MEFs (Mut MEFs [7]; 100 μM): 57 ± 2.2%
effect on survival of Mut cells (Mut MEFs [7]; as high as 30 μM (FIG. 4, Table 3)): did not have any negative effect on the survival
Survival (%) ± SEM WT astrocytes (WT astrocytes; 1 μM): 114 ± 7.9%
Survival (%) ± SEM WT astrocytes (WT astrocytes; 10 μM): 95 ± 2.3%
Survival (%) ± SEM WT astrocytes (WT astrocytes; 30 μM): 82 ± 1.9%
Survival (%) ± SEM Mut astrocytes (Mut astrocytes [9]; 1 μM): 97 ± 0.5%
Survival (%) ± SEM Mut astrocytes (Mut astrocytes [9]; 10 μM): 93 ± 5.1%
Survival (%) ± SEM Mut astrocytes (Mut astrocytes [9]; 30 μM): 76 ± 4.9%
red/green JC1 signal (mitochondria with high to low membrane potential) (Mut MEFs [8]; Mut MEFs, 1 μM and 10 μM, 6 hours (FIG. 6)): increased the ratio between the content of mitochondria with high to low membrane potential
mitochondrial content in Mut MEFs (Mut MEFs [1]; 0.1 μM-1 μM, 6 hours incubation (FIG. 2)): lowered the abnormal high mitochondrial content
TMRE staining (mitochondrial membrane potential) (Mut MEFs [2]; 1 μM, 6 hours (FIGS. 5A-B)): increased TMRE staining to a level above that of untreated WT cells
maximal respiration rate per mitochondrial content (Mut MEFs [3]): increased the maximal respiration capacity per mitochondria to the level of untreated WT cells
basal and ATP-linked respiration rate per mitochondrial DNA content (Mut MEFs [3]): statistically significant increase
basal respiration and ATP-linked respiration per cell (OCR) (Mut MEFs [3]): no effect
ATP-linked and maximal respiration in mutant astrocytes (Mut primary astrocytes [4]): increased both ATP-linked and maximal respiration
mitochondrial content per cell in astrocytes (Mut primary astrocytes [5]): no effect on mitochondrial content per cell
survival of Mut MEFs under Tunicamycin ER-stress (Mut MEFs [10]): able to rescue mutant MEFs

CCCN(CCC)CCc1ccc(OC)c(OCCc2ccccc2)c1 [NE100]
Survival (%) ± SEM Mut MEFs (Mut MEFs [7]; 0.1 μM): 99 ± 2.1%
Survival (%) ± SEM Mut MEFs (Mut MEFs [7]; 1 μM): 98 ± 2.2%
Survival (%) ± SEM Mut MEFs (Mut MEFs [7]; 10 μM): 88 ± 3.5%
Survival (%) ± SEM WT astrocytes (WT astrocytes; 0.1 μM): 98 ± 1.8%
Survival (%) ± SEM WT astrocytes (WT astrocytes; 1 μM): 86 ± 1.1%
Survival (%) ± SEM WT astrocytes (WT astrocytes; 10 μM): 79 ± 2.2%
Survival (%) ± SEM Mut astrocytes (Mut astrocytes [9]; 1 μM): 94 ± 4.7%
Survival (%) ± SEM Mut astrocytes (Mut astrocytes [9]; 10 μM): 82 ± 4.3%
Survival (%) ± SEM Mut astrocytes (Mut astrocytes [9]; 30 μM): 65 ± 2.2%
mitochondrial content in Mut MEFs (Mut MEFs [1]; 0.1 μM, 1 μM or 10 μM, 6 hours (FIG. 2)): increased mitochondrial content in a dose dependent manner
TMRE staining (mitochondrial membrane potential) (Mut MEFs [2]; all concentrations, 6 hours (FIG. 5A)): negative effect on TMRE staining
basal respiration and ATP-linked respiration per cell (OCR) (Mut MEFs [3]): negative effect
